From ChEMBL document CHEMBL1136425, “A novel metal-chelating inhibitor of protein farnesyltransferase” (Bioorg Med Chem Lett, 2003)
Converted amounts (≈) assume the structure as drawn.

System: not listed separately
Assay: Inhibitory activity against K-rasNRK cells
Type: functional, cell-based, Rattus norvegicus

Row | IC50 | SMILES
1 | 0.32 µg/mL (≈ 0.834 µM) | SCCNCc1cc(-c2cccc3ccccc23)cc(CNCCS)n1

Target: Protein farnesyltransferase (Homo sapiens, UniProt P49354+P49356)
Assay: Inhibition of [3H]farnesyl pyrophosphate binding to human farnesyltransferase
Type: protein-complex assay

Row | SMILES | IC50
2 | CN(C)c1cc(CNCCS)nc(CNCCS)c1 | 0.62 mM
3 | CCCC[C@@H](C)/C=C(C)/C=C(\C)C(=O)NC1=C[C@@](O)(/C=C/C=C/C=C/C(=O)NC2=C(O)CCC2=O)[C@@H]2O[C@@H]2C1=O [MANUMYCIN A] | 0.0119 mM
4 | c1cnc2c(c1)ccc1cccnc12 [PHENANTHROLINE] | 4 mM

Further lines, results first:

Row | IC50 | SMILES
5 | 100 mM | c1ccc(-c2ccccn2)nc1
6 | 15.5 mM | NCCN [ETHYLENEDIAMINE]
